Numbers after ± are expanded uncertainties.
Assays:
[1] = refractive index (other wavelength) (dimensionless); conditions: 100 kPa, Liquid, Standard Abbe refractometry
[2] = Liquid; for mass density / viscosity: 101.33 kPa; for mass density: Vibrating tube method; for viscosity: Vibrating wire viscometry; for vapor or sublimation pressure: Ebulliometric method (Recirculating still)

COC(=O)c1ccc(C(C)(C)C)cc1 [methyl 4-tert-butylbenzoate]
refractive index, [1]
Conditions	Wavelength=404.7 nm	Wavelength=435.8 nm	Wavelength=486.1 nm	Wavelength=546.1 nm	Wavelength=587.6 nm	Wavelength=589.3 nm	Wavelength=632.8 nm	Wavelength=644 nm	Wavelength=706.5 nm
293.15 K	1.53993 ± 0.00056	1.53137 ± 0.00054	1.52182 ± 0.00052	1.51423 ± 0.0005	1.51053 ± 0.0005	1.51039 ± 0.0005	1.50735 ± 0.0005	1.50663 ± 0.0005	1.50334 ± 0.00049
298.15 K	1.53745 ± 0.00056	1.52893 ± 0.00054	1.51944 ± 0.00051	1.51188 ± 0.0005	1.5082 ± 0.0005	1.50807 ± 0.00049	1.50504 ± 0.0005	1.50433 ± 0.0005	1.50105 ± 0.00049
303.15 K	1.5352 ± 0.00056	1.52672 ± 0.00054	1.51725 ± 0.00051	1.50975 ± 0.0005	1.50608 ± 0.00049	1.50595 ± 0.0005	1.50293 ± 0.0005	1.50222 ± 0.0005	1.49897 ± 0.00049
308.15 K	1.53292 ± 0.00056	1.52448 ± 0.00054	1.51505 ± 0.00051	1.50756 ± 0.0005	1.50382 ± 0.00051	1.50368 ± 0.00049	1.50107 ± 0.0005	1.50004 ± 0.0005	1.49686 ± 0.00049
313.15 K	1.5307 ± 0.00056	1.52231 ± 0.00054	1.5129 ± 0.00051	1.50548 ± 0.0005	1.50185 ± 0.00049	1.50172 ± 0.0005	1.49872 ± 0.0005	1.49802 ± 0.0005	1.49479 ± 0.00049
318.15 K	1.52841 ± 0.00056	1.52004 ± 0.00054	1.5107 ± 0.00051	1.50329 ± 0.0005	1.4997 ± 0.0005	1.49957 ± 0.0005	1.49659 ± 0.0005	1.49589 ± 0.0005	1.49268 ± 0.00049
323.15 K	1.52614 ± 0.00056	1.5178 ± 0.0005	1.50849 ± 0.00051	1.50112 ± 0.0005	1.49755 ± 0.0005	1.49742 ± 0.0005	1.49445 ± 0.0005	1.49375 ± 0.0005	1.49056 ± 0.00049
328.15 K	1.52383 ± 0.00056	1.51554 ± 0.00053	1.50627 ± 0.00051	1.49894 ± 0.0005	1.49537 ± 0.0005	1.49525 ± 0.0005	1.49225 ± 0.0005	1.49161 ± 0.00049	1.48842 ± 0.00049
333.15 K	1.52158 ± 0.00056	1.51332 ± 0.00053	1.50407 ± 0.00051	1.49678 ± 0.0005	1.49326 ± 0.00049	1.49314 ± 0.0005	1.4902 ± 0.0005	1.4895 ± 0.0005	1.48634 ± 0.00049
338.15 K	1.51926 ± 0.00056	1.51104 ± 0.00053	1.50186 ± 0.00051	1.4946 ± 0.0005	1.49108 ± 0.0005	1.49096 ± 0.0005	1.48801 ± 0.0005	1.48735 ± 0.0005	1.48419 ± 0.00049
343.15 K	1.51699 ± 0.00056	1.50881 ± 0.00053	1.49967 ± 0.00051	1.49246 ± 0.0005	1.48895 ± 0.0005	1.48883 ± 0.0005	1.48591 ± 0.0005	1.48523 ± 0.0005	1.48208 ± 0.00049
348.15 K	1.5147 ± 0.00056	1.50655 ± 0.00053	1.49745 ± 0.00051	1.49026 ± 0.0005	1.48678 ± 0.0005	1.48667 ± 0.0005	1.48376 ± 0.0005	1.48309 ± 0.0005	1.47995 ± 0.00049
353.15 K	1.51239 ± 0.00056	1.50427 ± 0.00053	1.49523 ± 0.00051	1.48807 ± 0.0005	1.48461 ± 0.0005	1.48449 ± 0.0005	1.48162 ± 0.0005	1.48094 ± 0.0005	1.47781 ± 0.00049

[2]
Conditions	mass density [kg/m3]	vapor or sublimation pressure [kPa]	viscosity [mPa·s]
293.15 K	1008.55 ± 1.5	–	6.867 ± 0.36
298.15 K	1004.06 ± 1.5	–	5.867 ± 0.35
303.15 K	999.54 ± 1.5	–	5.013 ± 0.34
308.15 K	994.01 ± 1.5	–	4.291 ± 0.33
313.15 K	989.09 ± 1.5	–	3.687 ± 0.32
318.15 K	983.89 ± 1.5	–	3.188 ± 0.31
323.15 K	979.29 ± 1.5	–	2.781 ± 0.31
328.15 K	974.01 ± 1.5	–	2.451 ± 0.31
333.15 K	969.29 ± 1.5	–	2.185 ± 0.3
338.15 K	964.47 ± 1.5	–	1.969 ± 0.3
343.15 K	959.5 ± 1.5	–	1.79 ± 0.3
348.15 K	954.38 ± 1.5	–	1.634 ± 0.3
353.15 K	948.71 ± 1.5	–	1.487 ± 0.3
398.3 K	–	1.21 ± 0.41	–
408.4 K	–	1.89 ± 0.41	–
411.3 K	–	2.13 ± 0.41	–
421.3 K	–	3.19 ± 0.42	–
430.4 K	–	4.51 ± 0.43	–
434.9 K	–	5.32 ± 0.45	–
440.6 K	–	6.53 ± 0.46	–
446.1 K	–	7.93 ± 0.48	–
448.2 K	–	8.53 ± 0.51	–
452.4 K	–	9.87 ± 0.52	–
454.3 K	–	10.53 ± 0.54	–
457.2 K	–	11.6 ± 0.56	–
459.7 K	–	12.61 ± 0.58	–
462.6 K	–	13.87 ± 0.6	–
464.3 K	–	14.67 ± 0.63	–
466.3 K	–	15.67 ± 0.66	–
467.2 K	–	16.13 ± 0.66	–
470.7 K	–	18 ± 0.69	–
473.6 K	–	19.73 ± 0.73	–
475.1 K	–	20.67 ± 0.77	–
477.9 K	–	22.53 ± 0.8	–
480.1 K	–	24.13 ± 0.84	–
482.4 K	–	25.87 ± 0.88	–
483.3 K	–	26.53 ± 0.87	–
484.9 K	–	27.88 ± 0.93	–
486.4 K	–	29.13 ± 0.93	–
487.9 K	–	30.4 ± 0.97	–
489.5 K	–	31.86 ± 1	–
490.6 K	–	32.93 ± 1	–
492.4 K	–	34.66 ± 1	–

Reference: the NIST ThermoML archive (doi:10.1021/acs.jced.6b00470)
